Assay results reported in patent US20090312406A1, “COUMARIN COMPOUNDS AND THEIR USE FOR TREATING VIRAL INFECTION” (priority 2008, published 2009).
Read-outs that look alike come from different tables or passages of the source.

Experiments:
[1] = system: Influenza A/WSN/33 (H1N1) virus; assay: In vitro anti-influenza virus assay (neutralization test), cytopathic effect on MDCK cells; format: cell-based; details: MDCK cells, 72 h, read-out: IC50 (concentration reducing virus-induced cytopathic effect by 50%)
Procedure: Anti-influenza activities of the coumarin compounds were evaluated by measuring the ability of a test compound to inhibit the cytopathic effect induced by an influenza virus on MDCK cells. The 96-well tissue culture plates were seeded with 200 μL of MDCK cells at a concentration of 1.1×10^5 cells/mL in DMEM with 10% fetal bovine serum (FBS). The plates were incubated for 24-30 h at 37° C. and were used at about 90% confluency. Influenza A/WSN/33 (H1N1) virus (100 TCID50) was added to the cells and incubated at 35° C. for 1 h. After adsorption, the infected cell plates were overlaid with 50 μL of DMEM plus 2% FBS and a test compound with different concentrations. The plate was incubated at 35° C. for 72 h. At the end of incubation, the plates were fixed by the addition of 100 μL of 4% formaldehyde for 1 h at room temperature. After the removal of formaldehyde, the plates were stained with 0.1% crystal violet for 15 min at room temperature. The plates were washed and dried, and the density of the well was measured at 570 nm. The concentration required for a test compound to reduce the virus-induced cytopathic effect (CPE) by 50% relative to the virus control was expressed as IC50.
Compounds 1 and 95 were also tested on various influenza virus strains. Amantadine or Relenza was also tested for comparison. IC50 is defined as the concentration required for a test compound to reduce the virus-induced cytopathic effect (CPE) by 50% relative to the virus control.

[2] = system: herpes simplex virus type 1; assay: In vitro assessment of anti-HSV activity, plaque reduction assay in Vero cells (Example 8); format: cell-based; details: for SI, selectivity index = CC50/EC50: CC50/EC50, HSV-1; for EC50: Human alphaherpesvirus 1, herpes simplex virus type 1, Vero cells, plaque reduction, 72 h, read-out: EC50 (μM), 50% effective concentration
Procedure: Anti-HSV activities of compounds described herein were evaluated by performing a plaque reduction assay using monolayer cultures of Vero cells in 24-well culture plates. A cell monolayer was infected with herpes simplex virus type 1 (50 pfu/well) and incubated at 37° C. with 5% CO2 for 1 h. The infected cell monolayer was then washed three times with PBS and overlaid with a solution (maintenance medium containing 1% methylcellulose and various concentrations of a test compound). After 72 h of incubation at 37° C., the cell monolayer was fixed with 10% formalin and stained with 1% crystal violet. […] The minimal concentration of a compound required to reduce 50% of plaque numbers (EC50) was calculated by regression analysis of the dose-response curves generated from the plaque assay.

[3] = Cytotoxicity (CC50) of the compounds tested in the anti-HSV assay; format: cell-based; details: African green monkey, Vero cells; Table 5; read-out: CC50 (μM), 50% cytotoxicity concentration
[4] = system: HIV-1; assay: Inhibition of HIV-1 replication in peripheral blood mononuclear cells, viral RNA by real-time PCR; details: Human immunodeficiency virus 1, PBMC
Procedure: Equal amounts of wild-type and mutant viruses were used to infect 5×10^4 peripheral blood mononuclear cells (PBMC) in 1.5 mL medium containing DMSO or various concentrations of a test compound. A half-milliliter of the culture medium was collected from each culture at days 3, 5, and 7. Viral RNA was extracted from the collected culture supernatants and the viral titers (copies/mL) were determined by real-time PCR. The percentage of inhibition was calculated as [100−(VD/VC)]×100%, where VD and VC refer to the virus titers in the presence and absence of the test compound, respectively.

[5] = lower bound (10 nM), upper in μM
[6] = 72 h, read-out: Inhibition (%) Day 3
[7] = 120 h, read-out: Inhibition (%) Day 5
[8] = 168 h, read-out: Inhibition (%) Day 7

Structure (SMILES): Cc1cc(=O)oc2c1ccc1oc(C(=O)c3ccccc3)c(-c3ccc(Br)cc3)c12 [Compound 140]
- IC50 [1, 5]: 10 to 999 nM
- SI, selectivity index = CC50/EC50 [2]: >291.545
- EC50 [2]: 0.343 µM
- CC50 [3]: > 100 µM
- inhibition at 0.1 µM [4, 6]: 19%
- inhibition at 0.1 µM [4, 7]: 65%
- inhibition at 0.1 µM [4, 8]: 93%

Structure (SMILES): Cc1cc(=O)oc2c1ccc1oc(C(=O)c3ccc(O)cc3)c(-c3ccccc3)c12 [Compound 34]
- IC50 ([1]; ranges given): 1000 to 5900 nM

Structure (SMILES): Cc1cc(=O)oc2c1ccc1oc(C(=O)c3ccccc3)c(C)c12 [Compound 154]
- IC50 ([1]; ranges given): 1000 to 5900 nM

Structure (SMILES): Cc1ccccc1C(=O)c1oc2ccc3c(C)cc(=O)oc3c2c1-c1ccccc1 [Compound 39]
- IC50 ([1]; ranges given): 6000 to 25000 nM

Structure (SMILES): Cc1cc(=O)oc2c1ccc1oc(C(=O)c3ccccc3)c(-c3cccc(C(=O)O)c3)c12 [Compound 207]
- IC50 ([1]; ranges given): 1000 to 5900 nM

Structure (SMILES): Cc1cc(=O)oc2c1ccc1oc(C(=O)c3cccc(OCCCCl)c3)c(-c3ccccc3)c12 [Compound 74]
- IC50 [1, 5]: 10 to 999 nM

Structure (SMILES): Cc1cc(=O)oc2c1ccc1oc(C(=O)c3ccccc3)c(-c3cccs3)c12 [Compound 160]
- IC50 [1, 5]: 10 to 999 nM

Structure (SMILES): Cc1cc(=O)oc2c1ccc1oc(C(=O)c3cccc(O)c3)c(-c3ccccc3)c12 [Compound 33]
- IC50 [1, 5]: 10 to 999 nM
- SI, selectivity index = CC50/EC50 [2]: 235.972
- EC50 [2]: 0.396 µM
- CC50 [3]: 93.4 µM
- inhibition at 0.1 µM [4, 6]: 5%
- inhibition at 0.1 µM [4, 7]: 98%
- inhibition at 0.1 µM [4, 8]: 99.5%
